The record followed here is patent US10323022B2, “Pyrrolidinyl urea, pyrrolidinyl thiourea and pyrrolidinyl guanidine compounds as TrkA kinase inhibitors” (Array BioPharma Inc., priority 2011, dated 2019).

Structures are written as SMILES. Where only a bound is given, the exact number is not on record here.

TrkA, sequence (P04629 33-796): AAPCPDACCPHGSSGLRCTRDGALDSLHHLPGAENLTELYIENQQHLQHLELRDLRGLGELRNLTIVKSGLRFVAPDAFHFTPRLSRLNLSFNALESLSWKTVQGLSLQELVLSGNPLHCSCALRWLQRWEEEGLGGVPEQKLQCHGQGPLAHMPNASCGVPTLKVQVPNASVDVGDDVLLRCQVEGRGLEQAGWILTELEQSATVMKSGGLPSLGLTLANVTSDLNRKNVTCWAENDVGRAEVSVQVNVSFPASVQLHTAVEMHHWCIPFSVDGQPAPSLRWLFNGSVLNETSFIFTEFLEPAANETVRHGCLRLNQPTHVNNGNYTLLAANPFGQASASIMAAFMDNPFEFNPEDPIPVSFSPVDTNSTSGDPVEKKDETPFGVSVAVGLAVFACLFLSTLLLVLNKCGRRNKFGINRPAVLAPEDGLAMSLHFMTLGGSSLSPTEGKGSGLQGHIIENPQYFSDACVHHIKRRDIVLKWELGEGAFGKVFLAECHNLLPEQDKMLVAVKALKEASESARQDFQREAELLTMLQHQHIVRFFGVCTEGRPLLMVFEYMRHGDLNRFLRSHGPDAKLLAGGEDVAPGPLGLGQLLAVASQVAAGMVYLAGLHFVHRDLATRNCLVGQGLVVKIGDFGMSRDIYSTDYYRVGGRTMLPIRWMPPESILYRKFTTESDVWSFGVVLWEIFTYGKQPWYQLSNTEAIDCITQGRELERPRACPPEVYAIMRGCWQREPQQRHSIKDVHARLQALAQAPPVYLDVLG

The assay concerns the target TrkA (Homo sapiens (Human), UniProt P04629). As to the kind of experiment: TrkA Omnia Assay. Particulars: averaged IC50; 20 nM enzyme, 500 μM ATP, 10 μM peptide substrate. The class given is biochemical. Summed up:
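Continuous fluorescent kinase read-out (ex 360 nm, em 485 nm) over 70 min, with initial rates fitted to 4- or 5-parameter logistic curves for IC50. Final conditions: 500 μM ATP, 10 μM Omnia Tyr Peptide #4, 20 nM TrkA, MOPS pH 7.5 buffer with MgCl2 and Triton X-100; enzyme and compound preincubated 10 min at ambient temperature.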
In general, IC50 refers to the midpoint of a concentration-inhibition curve. A low value points to inhibition by little substance. Compound `COCCN1C[C@@H](NC(=O)Nc2c(C)c(C[C@H](C)O)nn2-c2ccccc2)[C@H](c2ccc(F)c(F)c2)C1` [Example 289, 1-((3S,4R)-4-(3,4-difluorophenyl)-1-(2-methoxyethyl)pyrrolidin-3-yl)-3-(3-((S)-2-hydroxypropyl)-4-methyl-1-phenyl-1H-pyrazol-5-yl)urea] displayed an IC50 of under 100 nM.

Consider `Cc1nn(-c2ccccc2)c(NC(=O)N[C@@H]2CN(c3cn[nH]c3)C[C@H]2c2ccc(F)c(F)c2)c1C` [Example 224, 1-((3S,4R)-4-(3,4-difluorophenyl)-1-(1H-pyrazol-4-yl)pyrrolidin-3-yl)-3-(3,4-dimethyl-1-phenyl-1H-pyrazol-5-yl)urea], for which the IC50 was under 100 nM. In the case of `COCCN1C[C@@H](NC(=O)Nc2c(C)c(OCC(F)(F)F)nn2-c2ccccc2)[C@H](c2ccc(F)c(F)c2)C1` [Example 475, 1-((3S,4R)-4-(3,4-difluorophenyl)-1-(2-methoxyethyl)pyrrolidin-3-yl)-3-(4-methyl-1-phenyl-3-(2,2,2-trifluoroethoxy)-1H-pyrazol-5-yl)urea] it was under 100 nM; in that of `COCCN1C[C@@H](NC(=O)Nc2c(F)c(C)nn2-c2ccccc2)[C@H](c2ccc(F)c(F)c2)C1` [Example 167, 1-((3S,4R)-4-(3,4-difluorophenyl)-1-(2-methoxyethyl)pyrrolidin-3-yl)-3-(4-fluoro-3-methyl-1-phenyl-1H-pyrazol-5-yl)urea], under 100 nM.

`COCCN1C[C@@H](NC(=O)Nc2cc(-c3cnccn3)nn2C)[C@H](c2ccc(F)c(F)c2)C1` [Example 155, 1-((3S,4R)-4-(3,4-difluorophenyl)-1-(2-methoxyethyl)pyrrolidin-3-yl)-3-(1-methyl-3-(pyrazin-2-yl)-1H-pyrazol-5-yl)urea] gave an IC50 of under 100 nM. The figure for `COCCN1C[C@@H](NC(=O)Nc2c(C)c([C@H]3C[C@@H](O)C3)nn2-c2ccccc2)[C@H](c2ccc(F)c(F)c2)C1` [Example 450, 1-((3S,4R)-4-(3,4-difluorophenyl)-1-(2-methoxyethyl)pyrrolidin-3-yl)-3-(3-(cis-3-hydroxycyclobutyl)-4-methyl-1-phenyl-1H-pyrazol-5-yl)urea] is under 100 nM; for `COCCN1C[C@@H](NC(=O)Nc2c(C)c(-c3cnn(C)c3)nn2-c2ccc(F)cc2)[C@H](c2ccc(F)cc2)C1` [Example 318, 1-((3S,4R)-4-(4-fluorophenyl)-1-(2-methoxyethyl)pyrrolidin-3-yl)-3-(1-(4-fluorophenyl)-1′,4-dimethyl-1H,1′H-[3,4′-bipyrazol]-5-yl)urea] it is 100 to 1000 nM. For the compound `COCCN1C[C@@H](NC(=O)Nc2c3c(nn2-c2ccccc2)CSC3)[C@H](c2cc(F)cc(F)c2)C1` [Example 89, 1-((3S,4R)-4-(3,5-difluoro-phenyl)-1-(2-methoxyethyl)pyrrolidin-3-yl)-3-(2-phenyl-4,6-dihydro-2H-thieno[3,4-c]pyrazol-3-yl) urea], the IC50 is under 100 nM. Consider `COCCN1C[C@@H](NC(=O)Nc2c(Cl)c(CCOC(C)=O)nn2-c2ccccc2)[C@H](c2ccc(F)c(F)c2)C1` [Example 448, 2-(4-chloro-5-(3-((3S,4R)-4-(3,4-difluorophenyl)-1-(2-methoxyethyl)pyrrolidin-3-yl)ureido)-1-phenyl-1H-pyrazol-3-yl)ethyl acetate], for which the IC50 was under 100 nM. In the case of `COCCN1C[C@@H](NC(=O)Nc2c3c(nn2-c2ccccc2)C(C)(C)CCC3)[C@H](c2ccccc2)C1` (relative stereo) [Example 37, 1-(7,7-dimethyl-2-phenyl-4,5,6,7-tetrahydro-2H-indazol-3-yl)-3-(trans-1-(2-methoxyethyl)-4-phenylpyrrolidin-3-yl)urea] it was under 100 nM. In turn, `COCCN1C[C@@H](NC(=O)Nc2c(C)c(-c3cnn(C4CC4)c3)nn2-c2ccccc2)[C@H](c2ccc(F)c(F)c2)C1` [Example 509, 1-(1′-cyclopropyl-4-methyl-1-phenyl-1H,1′H-[3,4′-bipyrazol]-5-yl)-3-((3S,4R)-4-(3,4-difluorophenyl)-1-(2-methoxyethyl)pyrrolidin-3-yl)urea] yielded an IC50 of under 100 nM. Compound `COCCOc1nn(-c2ccccc2)c(NC(=O)N[C@@H]2CN(c3cn[nH]c3)C[C@H]2c2ccc(F)c(F)c2)c1C` [Example 226, 1-((3S,4R)-4-(3,4-difluorophenyl)-1-(1H-pyrazol-4-yl)pyrrolidin-3-yl)-3-(3-(2-methoxyethoxy)-4-methyl-1-phenyl-1H-pyrazol-5-yl)urea] returned an IC50 of under 100 nM. In the case of `COCCN1C[C@@H](NC(=O)Nc2c(Br)c(C(=O)NOC)nn2-c2ccccc2)[C@H](c2ccc(F)c(F)c2)C1` [Example 555, 4-bromo-5-(3-((3S,4R)-4-(3,4-difluorophenyl)-1-(2-methoxyethyl)pyrrolidin-3-yl)ureido)-N-methoxy-1-phenyl-1H-pyrazole-3-carboxamide] it was under 100 nM. The figure for `COCCN1C[C@@H](NC(=O)Nc2c(C(N)=O)c(C)nn2-c2ccccc2)[C@H](c2ccc(F)c(F)c2)C1` [Example 620, 5-(3-((3S,4R)-4-(3,4-difluoro-phenyl)-1-(2-methoxyethyl)pyrrolidin-3-yl)ureido)-3-methyl-1-phenyl-1H-pyrazole-4-carboxamide] is under 100 nM. `COCCN1C[C@@H](NC(=O)Nc2c(C#N)c(C)nn2-c2ccccc2)[C@H](c2ccccc2)C1` (relative stereo) [Example 32, 1-(4-cyano-3-methyl-1-phenyl-1H-pyrazol-5-yl)-3-(trans-1-(2-methoxy-ethyl)-4-phenylpyrrolidin-3-yl)urea] displayed an IC50 of 100 to 1000 nM. For `COCCN1C[C@@H](NC(=O)Nc2c(C)c(-c3ncn(C)n3)nn2-c2ccccc2)[C@H](c2ccc(F)c(F)c2)C1` [Example 347, 1-((3S,4R)-4-(3,4-difluorophenyl)-1-(2-methoxyethyl)pyrrolidin-3-yl)-3-(4-methyl-3-(1-methyl-1H-1,2,4-triazol-3-yl)-1-phenyl-1H-pyrazol-5-yl)urea], the IC50 is under 100 nM.

`COCCN1C[C@@H](NC(=O)Nc2c3c(nn2C)CCC3)[C@H](c2ccccc2)C1` (relative stereo) [Example 27, 1-(trans-1-(2-methoxyethyl)-4-phenylpyrrolidin-3-yl)-3-(2-methyl-2,4,5,6-tetrahydrocyclopenta[c]pyrazol-3-yl)urea]: the IC50 fell in the range of 1000 to 10000 nM. In turn, `COCCN1C[C@@H](NC(=O)Nc2cc(-c3ccc(F)cc3)nn2C)[C@H](c2cc(F)ccc2F)C1` [Example 120, 1-((3S,4R)-4-(2,5-difluorophenyl)-1-(2-methoxyethyl)pyrrolidin-3-yl)-3-(3-(4-fluoro-phenyl)-1-methyl-1H-pyrazol-5-yl)urea] had an IC50 of under 100 nM. The compound `COCCN1C[C@@H](NC(=O)Nc2c(C(N)=O)c(C)nn2-c2ccccc2)[C@H](c2cc(F)cc(Cl)c2)C1` (relative stereo) [Example 625, 5-(3-((trans)-4-(3-chloro-5-fluorophenyl)-1-(2-methoxyethyl)pyrrolidin-3-yl)ureido)-3-methyl-1-phenyl-1H-pyrazole-4-carboxamide] yielded an IC50 of under 100 nM. Consider `COCCN1C[C@@H](NC(=O)Nc2c(C)c(-c3ccc(=O)n(C)c3)nn2-c2ccccc2)[C@H](c2ccc(F)cc2)C1` [Example 519, 1-((3S,4R)-4-(4-fluorophenyl)-1-(2-methoxyethyl)pyrrolidin-3-yl)-3-(4-methyl-3-(1-methyl-6-oxo-1,6-dihydropyridin-3-yl)-1-phenyl-1H-pyrazol-5-yl)urea], for which the IC50 is under 100 nM. Take `COCCN1C[C@@H](NC(=O)Nc2c(C)c(-c3ccccc3)nn2-c2ccccc2)[C@H](c2cc(F)cc(F)c2)C1` [Example 329, 1-((3S,4R)-4-(3,5-difluorophenyl)-1-(2-methoxyethyl)pyrrolidin-3-yl)-3-(4-methyl-1,3-diphenyl-1H-pyrazol-5-yl)urea]: the IC50 was under 100 nM. Compound `COCCN1C[C@@H](NC(=O)Nc2cc(C(C)C)nn2-c2ccccc2)[C@H](c2ccccc2)C1` (relative stereo) [Example 12, 1-(3-isopropyl-1-phenyl-1H-pyrazol-5-yl)-3-(trans-1-(2-methoxyethyl)-4-phenylpyrrolidin-3-yl)urea] yielded an IC50 of under 100 nM.

`COCCN1C[C@@H](NC(=O)Nc2c(Br)c(COC3CCN(S(C)(=O)=O)CC3)nn2-c2ccccc2)[C@H](c2ccc(F)c(F)c2)C1` [Example 599, 1-(4-bromo-3-((1-(methylsulfonyl)piperidin-4-yloxy)methyl)-1-phenyl-1H-pyrazol-5-yl)-3-((3S,4R)-4-(3,4-difluorophenyl)-1-(2-methoxyethyl)pyrrolidin-3-yl)urea] displayed an IC50 of under 100 nM. The figure for `COCCN1C[C@@H](NC(=O)Nc2cn(-c3ccccc3)nc2C)[C@H](c2ccc(F)c(F)c2)C1` [Example 648, 1-((3S,4R)-4-(3,4-difluorophenyl)-1-(2-methoxyethyl)pyrrolidin-3-yl)-3-(3-methyl-1-phenyl-1H-pyrazol-4-yl)urea] is under 100 nM; for `COCCN1C[C@@H](NC(=O)Nc2c(C)c(-c3cnn(C)c3)nn2-c2cncc(Cl)c2)[C@H](c2ccc(F)c(F)c2)C1` [Example 497, 1-(1-(5-chloropyridin-3-yl)-1′,4-dimethyl-1H, 1′H-[3,4′-bipyrazol]-5-yl)-3-((3 S,4R)-4-(3,4-difluorophenyl)-1-(2-methoxyethyl)pyrrolidin-3-yl)urea] it is 100 to 1000 nM.

`COCCN1C[C@@H](NC(=O)Nc2cc(C(C)C)nn2-c2ccccc2)[C@H](c2cccs2)C1` (relative stereo) [Example 44, trans-1-(3-isopropyl-1-phenyl-1H-pyrazol-5-yl)-3-(1-(2-methoxyethyl)-4-(thiophen-2-yl)pyrrolidin-3-yl)urea] gave an IC50 of under 100 nM. `COCCN1C[C@@H](NC(=O)Nc2cc(-c3ccc(C(N)=O)cc3)nn2C)[C@H](c2ccc(F)c(F)c2)C1` [Example 162, 4-(5-(3-((3S,4R)-4-(3,4-difluorophenyl)-1-(2-methoxyethyl)pyrrolidin-3-yl)ureido)-1-methyl-1H-pyrazol-3-yl)benzamide] showed a concentration for half-maximal inhibition (IC50) of under 100 nM.
